Data on 4 compounds can be found in patent publication US12479870B2, “Base-modified cytidine nucleotides for leukemia therapy” (MEDIVIR AB, priority 2018, dated 2025).

Data set [1] relates to MOLT-4 cells. The data set is described as follows: Leukemia cell line CC50 assay (Cell Counting Kit-8, 5 days), MOLT-4. It is filed as cell-based. Conditions: Homo sapiens, 120 h, ALL (T cell), MOLT-4 cell line. Here is the method: MOLT-4 cells (human T-cell, acute lymphoblastic leukemia) from ATCC Cat. no CRL-1582 were grown in complete cell medium: RPMI-1640 medium Gibco Cat. no.11835-063 (Fisher Scientific), 10% Fetal Bovine serum (FBS) HyClone Cat. no. SV30160.03, lot no RAB35924 (GE Healthcare Life Sciences), Penicillin 50 u/ml/Streptomycin 0.05 mg/ml PAA Cat. no. P11-010 from Fisher Scientific
(§1) Leukemia cells were grown in a cell culture flask 75 cm2 with approximately 100 ml complete cell medium. The cells were counted using a Scepter-hand held automated cell counter, using 60 μm sensors (Millipore) and suspended in complete cell medium to 2×10^5cells. 100 μl of the cell suspension were seeded to all wells (2×10^4 cells/well).
(§2) The compounds were tested in twelve concentrations, […], 50 ? BM−5×10^−10 μM. 100 μl from a compound dilution plate were transferred to the cell assay plate=200 μl/well total volume and incubated for 5 days, at 37° C., 5% CO2 incubator.
(§3) After 5 days, 10 μl of KIT-8 was added and the culture was incubated for 3-4 hours, at 37° C., 5% CO2 incubator.
(§4) Plate were read in the spectrophotometer at wavelength 450 nm with a reference filter of 620 nm.
(§5) CC50 values are calculated by plotting the degree of inhibition (compared to the vehicle ctrl) against the logarithm of the compound concentration. […]

The test system of data set [2] is leukemia cell lines. Description: Average CC50 over the leukemia cell lines of Table 1. It counts as cell-based. The following applies: average over the leukemia cell lines of Table 1. Here is the method:
as §1
CC50 values are calculated by plotting the degree of inhibition (compared to the vehicle ctrl) against the logarithm of the compound concentration. Result values in the dilution series are fitted to a 4-parameter sigmoidal dose-response curve described by the expression:
[formula] where: • A=Minimum • B=Slope. • C=Inflection point. The inflection point is defined as the point on the curve where the curvature changes direction or signs. • D=Maximum • F=fraction inhibition • The CC50 value is the x-value giving F=0.5, as tabulated in Table 1 below: […]

The subject of data set [3] is K-562 cells. The data set is described as follows: Leukemia cell line CC50 assay (Cell Counting Kit-8, 5 days), K-562. It counts as cell-based. The following applies: Homo sapiens, 120 h, CML, K562 cell line. Here is the method: K-562 cells (human chronic myelogenous leukemia) from ATCC Cat. no CCL-243 were grown in complete cell medium: IMDM (w. L-glutamine, 25 mM Hepes, w/o Phenol red) Cat no. 21056-023 (Fisher Scientific), 10% Fetal Bovine serum (FBS) HyClone Cat. no. SV30160.03, lot no RAB35924 (GE Healthcare Life Sciences), Penicillin 50u/ml/Streptomycin 0.05 mg/ml Cat. no. SV30010 HyClone (Fisher Scientific)
as §1, §2, §3, §4, §5
Background: Formazan colour is commonly taken as a measure of viable cells.

Data set [4] relates to U-937 cells. The data set is described as follows: Leukemia cell line CC50 assay (Cell Counting Kit-8, 5 days), U-937. It is filed as cell-based. Conditions: Homo sapiens, U-937, 120 h, AML, U937 cell line. Here is the method: U-937 cells (human histiocytic lymphoma) from ATCC Cat. no CRL-1593.2 were grown in complete cell medium: RPMI-1640 medium Gibco Cat. no.11835-063 (Fisher Scientific), 10% Fetal Bovine serum (FBS), HyClone Cat. no. SV30160.03, lot no RAB35924 (GE Healthcare Life Sciences), Penicillin 50u/ml/Streptomycin 0.05 mg/ml PAA Cat. no. P11-010 from Fisher Scientific.
as §1, §2, §3, §4, §5

Data set [5] relates to CEM cells. The data set is described as follows: Leukemia cell line CC50 assay (Cell Counting Kit-8, 5 days), CEM. It is filed as cell-based. Conditions: Homo sapiens, CCRF-CEM, 120 h, ALL (T cell). Here is the method:
CEM cells (T-lymphoblast from acute lymphoblastic leukemia) acquired from Swedish Institute for Infectious Disease Control (SMI) were grown in complete cell medium: RPMI-1640 medium (without L-glutamine) Cat. no. R7509 (Sigma Aldrich), 10% Fetal Bovine serum (FBS) HyClone Cat. no. SV30160.03, lot no RAB35924 (GE Healthcare Life Sciences), Penicillin 50u/ml/Streptomycin 0.05 mg/ml PAA Cat. no. P11-010 from Fisher Scientific, 2 mM Ultra glutamine 1 Cat. no BE17-605E/U1 (Lonza). • Cell culture flask 75 cm2, Cat. no. 83.1813 from Sarstedt AB. • Compound dilution plate, 96-well, V-bottom PP plate, Nunc Cat. no.249944 from Thermo Scientific. • Cell assay plate, 96-well, Cat. no. 128009296 from Fisher Scientific • Cell Counting Kit-8 CK04 from Dojindo. • Test compounds were made up to 10 mM stock solution in DMSO
Leukemia cells were grown in a cell culture flask 75 cm2 with approximately 100 ml complete cell medium. The cells were counted using a Scepter-hand held automated cell counter, using 60 μm sensors (Millipore) and suspended in complete cell medium to 2×10^5cells. 100 μl of the cell suspension were seeded to all wells (2×10^4 cells/well). […]
as §4, §5

Data set [6] relates to Raji cells. Description: Leukemia cell line CC50 assay (Cell Counting Kit-8, 5 days), Raji. It is filed as cell-based. Conditions: Homo sapiens, 120 h, BL (B cell). Here is the method: Raji cells (B-lymphocyte from Burkitt's lymphoma) from ATCC Cat. no CCL-86 were grown in complete cell medium: RPMI-1640 medium Gibco Cat. no.11835-063 (Fisher Scientific), 10% Fetal Bovine serum (FBS), HyClone Cat. no. SV30160.03, lot no RAB35924 (GE Healthcare Life Sciences), Penicillin 50 u/ml/Streptomycin 0.05 mg/ml PAA Cat. no. P11-010 from Fisher Scientific.
as §1, §2, §3, §4, §5

Data set [7] concerns THP-1 cells. The data set is described as follows: Leukemia cell line CC50 assay (Cell Counting Kit-8, 5 days), THP-1. It is filed as cell-based. The following applies: Homo sapiens, THP-1, 120 h, AML, THP1 cell line. Here is the method: THP-1 cells (human acute monocytic leukemia) from ATCC Cat. no TIB-202 were grown in complete cell medium: RPMI-1640 medium Gibco Cat. no.11835-063 (Fisher Scientific), 10% Fetal Bovine serum (FBS), HyClone Cat. no. SV30160.03, lot no RAB35924 (GE Healthcare Life Sciences), Penicillin 50 u/ml/Streptomycin 0.05 mg/ml PAA Cat. no. P11-010 from Fisher Scientific.
as §1, §2, §3, §4, §5

Data set [8] concerns MV4-11 cells. Description: Leukemia cell line CC50 assay (Cell Counting Kit-8, 5 days), MV4-11. It counts as cell-based. The following applies: Homo sapiens, MV4-11, 120 h, AML, MV411 cell line. Here is the method: MV4-11 cells (human B-myelomonocytic leukemia) from ATCC Cat no. CRL-9591 were grown in complete cell medium: IMDM (w. GLUTAMAX-1) Cat no. 31980022 (Fisher Scientific), 10% Fetal Bovine serum (FBS) HyClone Cat. no. SV30160.03, lot no RAB35924 (GE Healthcare Life Sciences), Penicillin 50 u/ml/Streptomycin 0.05 mg/ml PAA Cat. no. P11-010 from Fisher Scientific.
as §1, §2, §3, §4, §5

Data set [9] deals with HL60 cells. Description: Leukemia cell line CC50 assay (Cell Counting Kit-8, 5 days), HL60. The following applies: Homo sapiens, HL-60, 120 h, AML. It counts as cell-based. Here is the method: HL60 cells (human acute promyelocytic leukemia) from ATCC Cat. no CCL-240 were grown in complete cell medium: IMDM Cat. no 330-2005 (ATCC), 20% Fetal Bovine serum (FBS) HyClone Cat. no. SV30160.03, lot no RAB35924 (GE Healthcare Life Sciences), Penicillin 50u/ml/Streptomycin 0.05 mg/ml PAA Cat. no. P11-010 from Fisher Scientific
as §1, §2, §3, §4
CC50 values are calculated by plotting the degree of inhibition (compared to the vehicle ctrl) against the logarithm of the compound concentration. Result values in the dilution series are fitted to a 4-parameter sigmoidal dose-response curve described by the expression: […]

A short description of data set [10]: Blood stability, murine whole blood. It counts as in vitro ADME. Here is the method: Stability of compounds in blood was assessed following incubation in murine or human whole blood for up to 120 minutes. Remaining compound was quantified by LC-MS/MS and resulting data were used to calculate intrinsic clearance (CLint) values: […]
Data set [11] in a line: Tolerability in SCID mice with human Hep3b xenograft (body weight, clinical signs). It counts as in vivo, mouse. The following applies: 25 mg/kg i.p. BID x 5, SCID mice. Here is the method: Compounds were prepared in PBS, n=9 mice per group. Body weights were monitored daily in three SCID mouse populations:
wherein the 5 day BID commenced 21 days after subcutaneous implantation with a human Hep3b xenograft.

Data set [12] has as its system advanced, cytarabine-treatment failure, leukemia. Conditions: cited from earlier work.

Usually CC50 stands for the concentration at which the toxic effect on the cells reaches its halfway point. A high value points to better tolerance by the cells. `CCC[C@H](C)OC(=O)[C@H](C)NP(=O)(OC[C@H]1OC[C@@H](n2cc(F)c(N)nc2=O)O1)Oc1cccc(C2CC2)c1` (single isomer, unassigned) [Prior art Ex 29 dia-2, reference compound]: the CC50 in [1] turned out to be 2.9 nM; in data set [2] it was 310 nM; in data set [3], 720 nM; in data set [4] it was 240 nM; in data set [5], 98 nM; in data set [6], 850 nM. Further, the figures for the 50% cytotoxic concentration (CC50) in [7] and in [8] were 250 nM and 7.8 nM, respectively.
On to `CC[C@@H](C)OC(=O)[C@H](C)NP(=O)(OC[C@H]1OC[C@@H](n2cc(F)c(N)nc2=O)O1)Oc1ccccc1` (single isomer, unassigned) [Prior art Ex 32 dia 2, reference compound], for which the CC50 amounted to 3.8 nM in data set [1]; 350 nM in data set [2]; 890 nM in data set [9]; 440 nM in data set [3]; 240 nM in [4]; 52 nM in data set [5]. Besides, the CC50 in data set [6] is 1000 nM; in data set [7], 200 nM; in [8], 8.1 nM.
Take `Nc1nc(=O)n([C@@H]2CO[C@H](CO)O2)cc1F` [5-fluorotroxacitabine, 4-amino-5-fluoro-1-((25,4S)-2-(hydroxymethyl)-1,3-dioxolan-4-yl)pyrimidin-2(1H)-one, reference compound]: in [10], the “stability in mouse blood” value is “stable in mouse blood”.
On to `Nc1ccn([C@@H]2CO[C@H](CO)O2)c(=O)n1` [troxacitabine], for which, in data set [11], the “tolerability observations (bodyweight, clinical signs)” value is “persistent bodyweight loss and clinical signs including piloerection, hunched posture and subdued behavior”. Also, the “patients with transient decrease in peripheral blood and marrow blasts” value in data set [12] was “Four”.
